Data published in US20190255040A1, “COMPOSITION AND METHOD FOR TOPICAL JS-K AS THERAPY FOR ACTINIC KERATOSIS” (JSK THERAPEUTICS, INC, priority 2018, published 2019).

How the values were obtained:
[1] = system: UV-induced skin damage in SKH1 mice; experiment: Animal efficacy for UV damage: UVB-exposed SKH1 mice, topical treatment, skin histology; assay type: in vivo
Protocol: Eight week-old female SKH1 mice were used. There were 5 mice in the control (no treatment, no UV) group and 10 mice in each treatment group. Treated mice all received one exposure of 600 Joules/m2 of UVB.
Immediately after UVB treatment, mice in each group were treated as follows: 200 uL of acetone only; JS-K at a concentration of 12 mg/mL in 200 uL of acetone; JS-K at a concentration of 6 mg/mL in 200 uL of acetone. Treatments were started immediately after UVB exposure and given twice (8 hours apart) on Day 1 and Day 2. On Day 3, mice were sacrificed and skin collected for histologic analysis.
H&E staining was used (FIG. 2A) to evaluate the count of Sunburn Cells, which are keratinocytes undergoing UV-induced apoptosis. […] The differences with controls were statistically significant for the higher dose of JS-K (12 mg/mL).
8-OG is a marker of oxydative damage.

[2] = system: human squamous skin carcinoma Cells (HatCat cells); experiment: Suppression of the growth in culture of human squamous skin carcinoma cells; assay type: cell-based; conditions: growth over a two-day period (FIG. 1), read-out: IC50 for suppressing growth of human squamous skin carcinoma cells
Protocol: FIG. 1 is a scatter plot illustrating the growth of human squamous skin carcinoma cells (HatCat 5K-Cells [10 μM]) over a two-day period;
Referring to FIG. 1, JS-K at 12 mg/mL in […] of acetone was active in suppressing the growth in culture of human squamous skin carcinoma Cells (HatCat cells) with IC50 concentrations <1000 nM, compared to no effect from dimethylsulfoxide (DMSO) or P1223 pluronic micellesAfd.

Which results are given for `CCOC(=O)N1CCN(/[N+]([O-])=N/Oc2ccc([N+](=O)[O-])cc2[N+](=O)[O-])CC1` [JS-K, O2-(2,4-dinitrophenyl)1-[(4-ethoxycarbonyl)piperazin-1-yI]diazen-1-ium-1,2-diolate]?
count of Sunburn Cells (keratinocytes undergoing UV-induced apoptosis), H&E staining ([1]; 600 Joules/m2 UVB, JS-K 6 or 12 mg/mL in 200 uL acetone topically twice daily Day 1-2, skin Day 3, significant only for 12 mg/mL): moderate decrease in the number of Sunburn Cells with a dose effect; percent of cells positive for 8-oxoguanine (8-OG), immunohistochemistry ([1]; 600 Joules/m2 UVB, JS-K 6 or 12 mg/mL in 200 uL acetone twice daily Day 1-2, dose effect, significant for both doses): fewer cells from the mice treated with JS-K were positive for 8-OG; epidermal thickness of UV-exposed skin ([1]; 600 Joules/m2 UVB, JS-K 6 or 12 mg/mL, 12 mg/mL markedly greater effect than 6 mg/mL): dose dependent JS-K effect on epidermal thickness; toxicity, skin irritation, skin ulceration or infection with the treatments ([1]; topical JS-K 6 or 12 mg/mL in 200 uL acetone twice daily Day 1-2): no evidence of toxicity, skin irritation, skin ulceration, or infection; IC50 [2]: < 1000 nM
